The test system of experiment [1] is KRAS-G12V mutant tumor cells SW620. Put plainly: Cell Proliferation Inhibition Assay (SW620), Cell-titer GLO, 96 h. The settings on record: Homo sapiens, SW-620, 96 h, SW620 cells, 96 h incubation, Cell-titer GLO; read-out: SW620(G12V). The class given is cell-based. The procedure: (§1) KRAS-G12V mutant tumor cells SW620 were seeded in low-attachment 96-well plates at a cell density of 1×10^3 cells/well and cultured overnight in a cell culture incubator. After the cells adhered, the test compounds were added to the 96-well plates at final concentrations of 10000, 2000, 400, 80, 16, 3.2, 0.64, 0.13, 0.03, 0 nM (final concentration of DMSO was 0.5% for all). After incubation at 37°C for 96 h, 50 µL of Cell-titer GLO working solution was added to each well, mixed by shaking, incubated at room temperature for 10 min, and the Luminescence value was read on a multi-function microplate reader. The luminescence data were calculated and converted into inhibition percent. The inhibition percent of cell proliferation was calculated according to the following formula: Inhibition Percent = (MaxValue−MeasuredValue)/(MaxValue−Blank) × 100% [formula]
("Max Value" comes from the 0.5% DMSO control well, "Blank" comes from the blank control well, and "Measured Value" comes from the compound-treated well).
Curve fitting was performed using GraphPad Prism software to obtain IC50 values, see Table 1.

For experiment [2], the system named is KRAS-G12D mutant tumor cells AGS. Put plainly: Cell Proliferation Inhibition Assay (AGS), Cell-titer GLO, 96 h. The class given is cell-based. The settings on record: Homo sapiens, AGS, 96 h, AGS cells, 96 h incubation, Cell-titer GLO; read-out: AGS(G12D). The protocol: as §1, with “KRAS-G12D” for “KRAS-G12V”, “AGS” for “SW620”, “After the cells adhered, the test compounds were added to the 96-well plates at final concentrations of 10000, 2000, 400, 80, 16, 3.2, 0.64, 0.13, 0.03, 0 nM (final concentration of DMSO was 0.5% for all).” left out, “[formula] […] Curve fitting was performed using GraphPad Prism software to obtain IC50 values, see Table 1.” for “[formula]”

`C[C@@H]1OCCCn2c(c3c4cc(ccc42)-c2csc(n2)C[C@H](NC(=O)[C@H]2C[C@@H]2C(F)F)C(=O)N2CCC[C@H](N2)C(=O)OCC(C)(C)C3)-c2cc(N3CCOC(C)(C)C3)cnc21` [Example 153, (1S,2S)-2-(difluoromethyl)-N-((1^5S,6^3S,4S,Z)-1^2-(2,2-dimethylmorpholino)-1^5,10,10-trimethyl-5 ,7-dioxo-1^8,1^9,6^1,6^2,6^3,6^4,6^5,6^6-octahydro-1^5H,^17H-8-oxa-1(13,15)-pyrido[3',2':7,8][1,5]oxazonino[5,6-a]indola-2(4,2)-thiazola-6(1,3)-pyridazinacycloundecaphane-4-yl)cyclopropane-1-carboxamide]: the IC50 in experiment [1] was determined as 0.28 nM; in experiment [2], 1.33 nM. Turning to `C[C@@H]1OCCCn2c(c3c4cc(ccc42)-c2csc(n2)C[C@H](NC(=O)[C@H]2C[C@@H]2C(F)F)C(=O)N2CCC[C@H](N2)C(=O)OCC(C)(C)C3)-c2cc(N3C[C@@H]4C[C@H]3CN4C)cnc21` [Example 155, (1S,2S)-2-(difluoromethyl)-N-((1^5S,6^3S,4S,Z)-1^5,10,10-trimethyl-1^2-((1S,4S)-5-methyl-2,5-diazabicyclo[2.2.1]heptan-2-yl)-5,7-dioxo-1^8,1^9,6^1,6^26^3,6^4,6^5,6^6-octahydro-1^5H,1^7H-8-oxa-1(13,15)-pyrido[3',2':7,8][1,5]oxazonino[5,6-a]indola-2(4,2)-thiazola-6(1,3)-pyridazinacycloundecaphane-4-yl)cyclopropane-1-carboxamide], the IC50 in experiment [1] amounted to 0.62 nM; in experiment [2], 1.38 nM.

Consider `C[C@@H]1OCCCn2c(c3c4cc(ccc42)-c2csc(n2)C[C@H](NC(=O)[C@H]2C[C@@H]2C(F)F)C(=O)N2CCC[C@H](N2)C(=O)OCC(C)(C)C3)-c2cc(OC[C@@H]3CCCCN3C)cnc21` [Example 156, (1S,2S)-2-(difluoromethyl)-N-((1^5S,6^3S,4S,Z)-1^5,10,10-trimethyl-1^2-(((S)-1-methylpiperidin-2-yl)methoxy)-5,7-dioxo-1^8,1^9,6^1,6^26^36^4,6^5,6^6-octahydro-1^5H,1^7H-8-oxa-1(13,15)-pyrido[3',2':7,8][1,5]oxazonino[5,6-a]indola-2(4,2)-thiazola-6(1,3)-pyridazinacycloundecaphane-4-yl)cyclopropane-1-carboxamide], for which, in experiment [2], the IC50 was 8.27 nM. `C[C@@H]1OCCCn2c(c3c4cc(ccc42)-c2csc(n2)C[C@H](NC(=O)[C@H]2C[C@@H]2C(F)F)C(=O)N2CCC[C@H](N2)C(=O)OCC(C)(C)C3)-c2cc(OCCN3CCOCC3)cnc21` [Example 157, (1S,2S)-2-(difluoromethyl)-N-((1^5S,6^3S,4S,Z)-1^5,10,10-trimethyl-1^2-(2-morpholinoethoxy)-5,7-dioxo-1^8,1^9,6^1,6^2,6^3,6^4,6^5,6^6-octahydro-1^5H,1^7H-8-oxa-1(13,15)-pyrido[3',2':7,8][1,5]oxazonino[5,6-a]indola-2(4,2)-thiazola-6(1,3)-pyridazinacycloundecaphane-4-yl)cyclopropane-1-carboxamide]: the results for the IC50 in experiment [1] and in experiment [2] were 0.58 nM and 3.31 nM, respectively. With `CCN1CCN(c2cnc3c(c2)-c2c4c5cc(ccc5n2CCCOC3C)-c2csc(n2)CC(NC(=O)C2C3COCC32)C(=O)N2CCCC(N2)C(=O)OCC(C)(C)C4)CC1` [Example 162, (3R,4r,5S)-N-((1^5S,6^3S,4S,Z)-1^2-(4-ethylpiperazin-1-yl)-1^5,10,10-trimethyl-5,7-dioxo-1^8,1^9,6^1,6^2 ,6^3,6^4,6^5,6^6-octahydro-1^5H,1^7H-8-oxa-1(13,15)-pyrido[3',2':7,8][1,5]oxazonino[5,6-a]indola-2(4, 2)-thiazola-6(1,3)-pyridazinacycloundecaphane-4-yl)tetrahydro-2H-pyran-4-carboxamide], the IC50 in experiment [2] amounted to 1.08 nM.
